Measurements as given in ChEMBL document CHEMBL5321241, “Identification of new hit to lead magmas inhibitors as potential therapeutics for glioblastoma” (Bioorg Med Chem Lett, 2023).

How the values were obtained:
[1] = Anticancer activity against human D-54MG cells assessed as cell growth inhibition inhibition incubated for 3 days; format: functional, cell-based; details: D54MG, 72 h
U-251 = test: Anticancer activity against human U-251 cells assessed as cell growth inhibition inhibition incubated for 3 days; format: functional, cell-based; details: U-251, 72 h
LN-229 = test: Anticancer activity against human LN-229 cells assessed as cell growth inhibition inhibition incubated for 3 days; format: functional, cell-based; details: LN-229, 72 h
[2] = Anticancer activity against patient-derived DB70 cells assessed as cell growth inhibition inhibition incubated for 3 days; format: functional, cell-based; details: Homo sapiens, DB70, 72 h
[3] = Anticancer activity against patient-derived DB93 cells assessed as cell growth inhibition incubated for 3 days; format: functional, cell-based; details: Homo sapiens, DB93, 72 h
[4] = Lipophilicity, logP of compound; format: physicochemical; details: octanol/water

| Structure (SMILES) | IC50 [1] | IC50 (U-251) | IC50 (LN-229) | IC50 [2] | IC50 [3] | logP ([4]; read-out: logP) | logP [4] |
| --- | --- | --- | --- | --- | --- | --- | --- |
| CCC1=C(C)/C(=C/c2ccc(C(=O)NC(=N)N)cc2)CCC1(C)C | 5.6 µM | 5.06 µM | 6.54 µM | 1.77 µM | 2.09 µM | 3.98 |  |
| CCC1=C(C)/C(=C/c2ccc(-c3noc(-c4ccc(Cl)cc4)n3)cc2)CCC1(C)C | > 100 µM | 10 µM |  |  |  | 8.12 |  |
| CCC1=C(C)/C(=C/c2ccc(C(=O)Nc3nc4ccccc4[nH]3)cc2)CCC1(C)C |  | 4.47 µM | > 75 µM |  |  | 5.78 |  |
| CCC1=C(C)/C(=C/c2ccc(/C(N)=N/O)cc2)CCC1(C)C | 66.6 µM | 56.8 µM |  |  |  | 4.53 |  |
| CCC1=C(C)/C(=C/c2ccc(C#N)cc2)CCC1(C)C | 72.2 µM | 83.8 µM |  |  |  | 5.25 |  |
| CCC1=C(C)/C(=C/c2ccc(C3=NOB(c4ccccc4)N3)cc2)CCC1(C)C | 47.4 µM | 26.8 µM | 60 µM | 13.3 µM | 8.31 µM | 6.5 |  |
| CCC1=C(C)/C(=C/c2ccc(-c3noc(-c4ccncc4)n3)cc2)CCC1(C)C |  | > 100 µM | > 100 µM |  |  | 6.22 |  |
| CCC1=C(C)/C(=C/c2ccc(-c3noc(-c4ccccc4OC(F)(F)F)n3)cc2)CCC1(C)C | 65.6 µM | 58.4 µM |  |  |  |  | 9.09 |
| CCC1=C(C)/C(=C/c2ccc(C(=O)Nc3ccc(Cl)cc3Cl)cc2)CCC1(C)C |  |  |  |  |  | 7.14 |  |
| CCC1=C(C)/C(=C/c2ccc(-c3noc(-c4cccnc4)n3)cc2)CCC1(C)C |  | 37.8 µM | 35.6 µM |  |  | 6.22 |  |
| CCC1=C(C)/C(=C/c2ccc(C(=O)Nc3ccc(O)cc3)cc2)CCC1(C)C | > 100 µM | > 100 µM |  |  |  | 5.63 |  |
| CCC1=C(C)/C(=C/c2ccc(-c3noc(-c4ccc(Br)cc4)n3)cc2)CCC1(C)C | > 100 µM | 7 µM |  |  |  | 8.39 |  |
| CCC1=C(C)/C(=C/c2ccc(C(=O)Nc3ccc4[nH]c(C(F)(F)F)nc4c3)cc2)CCC1(C)C |  | > 100 µM | > 100 µM |  |  | 6.37 |  |
| CCC1=C(C)/C(=C/c2ccc(C(=O)Nc3nccs3)cc2)CCC1(C)C |  | > 100 µM | > 100 µM |  |  | 5.74 |  |
| CCC1=C(C)/C(=C/c2ccc(C(=O)Nc3ccc(C(F)(F)F)cc3)cc2)CCC1(C)C | 3.81 µM | 6.04 µM | 5.93 µM | > 50 µM | > 50 µM | 6.94 |  |
| CCC1=C(C)/C(=C/c2ccc(C(=O)Nc3nc4ccccc4s3)cc2)CCC1(C)C | 6.64 µM | 19.3 µM | 22.8 µM | 6.67 µM | 3.54 µM | 7.22 |  |
| CCC1=C(C)/C(=C/c2ccc(C(=O)Nc3nc4ccc(Br)cc4s3)cc2)CCC1(C)C | 100 µM | 75 µM |  |  |  | 8.05 |  |
| CCC1=C(C)/C(=C/c2ccc(C(=O)Nc3ccc(OC(F)(F)F)cc3)cc2)CCC1(C)C |  | 20.7 µM | 47.5 µM |  |  | 7.55 |  |
| Cn1nnc2c(C(N)=O)ncn2c1=O [TEMOZOLOMIDE] | > 500 µM | > 500 µM | > 1000 µM | 25.4 µM | > 500 µM |  | -1.15 |
